Like-named read-outs stand apart in the source and are kept apart here.
What was measured:
[1] = CSF concentration, CSF-to-unbound plasma concentration ratio (Part 1b); assay type: in vivo, healthy adult participants (human); conditions: human; for Kp: oral
Method: Compound 1 concentrations in CSF were measured after single oral dosing in two dedicated cohorts in Part 1b. Lumbar puncture was performed for CSF collection and only one CSF sample per participant was collected on Day 1. Given the limited number of CSF PK samples that were collected in this study, CSF PK parameters were not determined; instead, Compound 1 concentrations in CSF were reported and concentration ratio between CSF and unbound plasma was calculated.
(§1) PK population included all participants exposed to Compound 1 with no major or critical deviations related to Compound 1 and for whom PK data were considered sufficient and interpretable. PK parameters were summarized by descriptive statistics for each dose level group. Distribution of Tmax values was represented by histogram plots for each dose level group. In Part 1a, dose proportionality was assessed using a linear model on Cmax, AUClast and AUC. In Part 2, all PK analyses were performed separately for each regimen (OD and BID). Steady state was assessed on Ctrough using a non-linear model. Accumulation was assessed using a linear model on log-transformed accumulation ratio. Dose proportionality was assessed using a power model on Cmax and AUCtau on Day 1 and Day 14, separately. Variance components of log-transformed Cmax and AUCtau were estimated using a linear model. In Part 1b, CSF concentration was described by dose level group and CSF to plasma unbound concentration ratios calculated were described in the same way. 4β-hydroxycholesterol on Day 14 versus Day 1 pre-dose concentration ratios were summarized using descriptive statistics by dose level group and point estimates with 90% confidence interval (90% CI) for the geometric mean of the log-transformed Day14/Day1 ratio was calculated in Part 2.

[2] = Concentration-ECG (QTcF, HR, PR, QRS) analysis from 24-hour Holter; assay type: in vivo, human
Method: A thorough time-matched (TM∘) ECG parameters analysis in relation with SAR443820 concentrations on Day 1 (SAD-Part 1a) and on Day 14 (MAD Part 2) over 24 hours compared to the baseline prior the first dosing was performed on ECG extracted from 24-hour Holter data.
For Part 1a (SAD) and Part 2 (MAD), the concentration-ECG population will encompass all randomized participants treated by SAR443820 as long as they have at least 1 ECG assessment time-matched with a pharmacokinetic concentration (ECGs centrally read coming from 24-hours Holter ECG). Participants randomized in the placebo group will also be included in the Concentration-ECG population if they have at least 1 non missing change from baseline in ECG parameter. Exposure-response analyses between QTcF parameters (change from time-matched baseline in 24-hours Holter ECG data) and corresponding Compound 1 concentrations were performed using graphical tools and regression methods over 24 hours on Day 1 (SAD-Part 1a) or Day 14 (MAD-Part 2) post-dose. Predictions at selected concentrations were computed using a linear mixed effect model (see Am Heart J. 2014; 168(3):262-72. J Pharmacokinet Pharmacodyn. 2018; 45(3):383-97).

[3] = tested on: CYP3A4; test: Plasma 4β-hydroxycholesterol Day 14/Day 1 ratio (CYP3A4 induction); assay type: in vivo, human; conditions: repeated doses up to 20 mg BID, 14 days
Method: The plasma 4β-hydroxycholesterol on Day 14 versus Day 1 pre-dose concentration ratios were calculated to evaluate the potential for CYP3A4 enzyme induction by Compound 1 after repeated doses in Part 2.
as §1, with “In Part 2, all PK analyses were performed separately for each regimen (OD and BID).” left out, “Variance components of log-transformed Cmax and AUCtau were estimated using a linear model.” left out, “2. […]” for “2.”

[4] = Part 1a Day 1, 10 mg, at Cmax 116.00 ng/ml
[5] = Part 1a Day 1, 20 mg, at Cmax 241.00 ng/ml
[6] = Part 1a Day 1, 30 mg, at Cmax 417.00 ng/ml
[7] = Part 1a Day 1, 40 mg, at Cmax 555.00 ng/ml
[8] = Part 2 Day 14, 10 mg QD, at Cmax 158.00 ng/ml
[9] = Part 2 Day 14, 15 mg BID, at Cmax 268.00 ng/ml
[10] = Part 2 Day 14, 20 mg BID, at Cmax 353.00 ng/ml
[11] = Part 2 Day 14, 20 mg QD, at Cmax 250.00 ng/ml

Structure (SMILES): CC(C)(C(=O)N1CCOc2c(C#N)cncc2C1)C(F)F [Compound 1, 4-(3,3-difluoro-2,2-dimethyl-propanoyl)-3,5-dihydro-2H-pyrido[3,4-f] [1,4]oxazepine-9-carbonitrile]
- CSF/unbound plasma ratio, mean values [1]: ~1.0
- Kp ([1]; CSF / unbound plasma, Part 1b single dose fed, [T1H-T3H], read-out: CSF-to-unbound Plasma concentration ratio, geometric mean): 0.817
- Kp ([1]; CSF / unbound plasma, Part 1b single dose fed, [T1H-T3H], read-out: CSF-to-unbound Plasma concentration ratio, mean): 0.84
- Kp ([1]; CSF / unbound plasma, Part 1b single dose fed, [T1H-T3H], read-out: CSF-to-unbound Plasma concentration ratio, median): 0.732
- Kp ([1]; CSF / unbound plasma, Part 1b single dose fed, [T4H-T6H], read-out: CSF-to-unbound Plasma concentration ratio, geometric mean): 0.755
- Kp ([1]; CSF / unbound plasma, Part 1b single dose fed, [T4H-T6H], read-out: CSF-to-unbound Plasma concentration ratio, mean): 0.804
- Kp ([1]; CSF / unbound plasma, Part 1b single dose fed, [T4H-T6H], read-out: CSF-to-unbound Plasma concentration ratio, median): 0.825
- Kp ([1]; CSF / unbound plasma, Part 1b single dose fed, [T5H-T16H], read-out: CSF-to-unbound Plasma concentration ratio, geometric mean): 1.27
- Kp ([1]; CSF / unbound plasma, Part 1b single dose fed, [T5H-T16H], read-out: CSF-to-unbound Plasma concentration ratio, mean): 1.27
- Kp ([1]; CSF / unbound plasma, Part 1b single dose fed, [T5H-T16H], read-out: CSF-to-unbound Plasma concentration ratio, median): 1.31
- Kp ([1]; CSF / unbound plasma, time intervals [T1H-T3H] or [T4H-T6H], read-out: Ratio CSF to unbound plasma): ~0.8
- Kp ([1]; CSF and unbound plasma, read-out: CSF/unbound plasma ratio, mean values): ~1
- Kp ([1]; CSF and unbound plasma, time interval [T8H-T10H], read-out: Ratio CSF to unbound plasma): ~1.3
- Predicted delta Heart Rate vs placebo [2, 4]: −3.68 beats/min
- Predicted delta PR Interval vs placebo [2, 4]: 5.87 ms
- Predicted delta QRS Duration vs placebo [2, 4]: -0.04 ms
- Predicted delta QTcF interval vs placebo [2, 4]: -4.41 ms
- Predicted delta Heart Rate vs placebo [2, 5]: −2.62 beats/min
- Predicted delta PR Interval vs placebo [2, 5]: 6.70 ms
- Predicted delta QRS Duration vs placebo [2, 5]: 0.43 ms
- Predicted delta QTcF interval vs placebo [2, 5]: -3.88 ms
- Predicted delta Heart Rate vs placebo [2, 6]: −1.11 beats/min
- Predicted delta PR Interval vs placebo [2, 6]: 7.88 ms
- Predicted delta QRS Duration vs placebo [2, 6]: 1.10 ms
- Predicted delta QTcF interval vs placebo [2, 6]: -3.15 ms
- Predicted delta Heart Rate vs placebo [2, 7]: 0.06 beats/min
- Predicted delta PR Interval vs placebo [2, 7]: 8.80 ms
- Predicted delta QRS Duration vs placebo [2, 7]: 1.62 ms
- Predicted delta QTcF interval vs placebo [2, 7]: -2.57 ms
- Predicted delta Heart Rate vs placebo [2, 8]: 0.25 beats/min
- Predicted delta PR Interval vs placebo [2, 8]: -4.63 ms
- Predicted delta QRS Duration vs placebo [2, 8]: 2.52 ms
- Predicted delta QTcF interval vs placebo [2, 8]: -5.36 ms
- Predicted delta Heart Rate vs placebo [2, 9]: −0.26 beats/min
- Predicted delta PR Interval vs placebo [2, 9]: -4.53 ms
- Predicted delta QRS Duration vs placebo [2, 9]: 3.00 ms
- Predicted delta QTcF interval vs placebo [2, 9]: -3.74 ms
- Predicted delta Heart Rate vs placebo [2, 10]: −0.65 beats/min
- Predicted delta PR Interval vs placebo [2, 10]: -4.46 ms
- Predicted delta QRS Duration vs placebo [2, 10]: 3.37 ms
- Predicted delta QTcF interval vs placebo [2, 10]: -2.49 ms
- Predicted delta Heart Rate vs placebo [2, 11]: −0.18 beats/min
- Predicted delta PR Interval vs placebo [2, 11]: -4.55 ms
- Predicted delta QRS Duration vs placebo [2, 11]: 2.92 ms
- Predicted delta QTcF interval vs placebo [2, 11]: -4.01 ms
- Effect on QTcF intervals ([2]; single dose up to 40 mg, repeated dose up to 20 mg BID): No clinically relevant dose-related effects
- Potential for CYP3A4 induction [3]: no potential for CYP3A4 induction

Reference: patent US20240100065A1, “METHODS FOR TREATING RECEPTOR-INTERACTING PROTEIN KINASE 1-MEDIATED DISEASES” (Genzyme Corporation, priority 2022, published 2024)
